Patent US11999956B2, “Targeted therapy composition and its use for suppressing breast cancer cell proliferation, migration or invasion” (NATIONAL CHENG KUNG UNIVERSITY, priority 2021, dated 2024)

What was measured:
[1] = system: SKBR3 cells; experiment: IC50 of Metformin in SKBR3/Vec and SKBR3/siEMP3 cells; format: cell-based, human; conditions: 72 hours post treatment; SKBR3/siEMP3 vs SKBR3/Vec
Source text: (§1) Please refer to FIGS. 12A to 12B. The potential impact of EMP3 on sensitivity to Metformin in SKBR3 cells in vitro was illustrated therein. […] That means knocking down of EMP3 raises survival rate of breast cancer cells upon treatment of Metformin, which may imply a desensitizing effect of EMP3 on breast cancer cells in upon Metformin treatment. […] As well-known in the field of endeavor, interference of cross-talk between AMPK and Wnt/β-catenin signaling pathways may decelerate cell growth of breast cancer cells. In example 7, the intervention level of Metformin to AMPK in SKBR3/Vec and SKBR3/siEMP3 cancer cells was verified.

[2] = system: AMPK-α1 and AMPK-α2; experiment: Western blot, effect of Metformin on AMPK signaling pathway in SKBR3 cells; format: cell-based, human
Method: Cells were lyzed in a radioimmunoprecipitation assay (RIPA) lysis buffer (Thermo Fisher Scientific Inc., Waltham, MA) and protease inhibitors (Thermo Fisher Scientific Inc., Waltham, MA) were used for protein extraction. Briefly, a total of 30 μg of protein was prepared on a 6 to 12% SDS-PAGE and transferred to a 0.2 to 0.45 μm polyvinylidene difluoride membrane (Stratagene, La Jolla, CA) and blocked by 5% milk (non-fat milk) in Tris Buffered Saline Buffer with Tween 20 (TBST). The membrane was hybridized with primary antibody at 4° C. overnight. The following day, after being washed with TBST for three times, membranes were incubated with secondary antibodies (anti-rabbit or anti-mouse IgG antibody) for 1 hour at room temperature. Detection of protein bands was performed using enhanced chemiluminescence system (Amersham ECL Plus; GE Healthcare, Piscataway, NJ).
as §1, with “In example 7, the intervention level of Metformin to AMPK in SKBR3/Vec and SKBR3/siEMP3 cancer cells was verified.” left out

IC50 values for Metformin in SKBR3/siEMP3 cells relative to vector control [1]: higher
Compound: CN(C)C(=N)N=C(N)N [Metformin]
AMPK-α1 expression [2]: down-regulated | AMPK-α2 expression [2]: down-regulated
